The values that follow come from US10597405B2, “Chemical compounds” (ASTRAZENECA AB, priority 2017, dated 2020).

What is called IC50 is the concentration that gives 50% inhibition. The term bioavailability denotes dose-corrected exposure relative to a reference, in per cent. The half-life is the time needed for the level to fall by half in the phase considered.

The nature of data set [1]: In vivo studies: oral bioavailability and clearance. The following applies: rat.
The target of data set [2] is T1, KRasG12C (Homo sapiens, UniProt P01116, G12C).
T1 construct: biotin (biotinylated); made in house
Put plainly: KRasG12C functional assay (HTRF nucleotide exchange / Raf RBD binding). The class given is biochemical. The following applies: GDP loaded biotinylated KRasG12C, samples incubated 4 hrs, FRET readout; single experiment or average of two or more. The gist of the method:
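Biotinylated GDP-loaded KRasG12C exchange driven by 0.08 μM SOS with 0.6 μM GTPγS, read by HTRF between europium and XL665 as active KRas binds 20 nM GST-Raf RBD. Buffer: 20 mM HEPES pH 7.5, 5 mM MgCl2, 150 mM NaCl, 0.01% Tween 20. IC50 from normalised FRET dose-response fits.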
(In general: TR-FRET usually uses a lanthanide donor and a delayed reading to cut background.)

Data set [3] deals with T1, KRasG12C. Put plainly: KRasG12C Mass Spectrometry adducting assay. The following applies: 10 μM test compound, 4 μM KRasG12C, 4 hours reaction; single experiment or average of two or more. The class given is binding. The method, then: KRasG12C Mass Spectrometry Adducting Assay
Enzyme solutions were prepared in assay buffer containing 20 mM HEPES (pH 7.5), 5 mM MgCl2, and 150 mM NaCl. 4 μM GDP loaded biotinylated KRas^G12C was prepared in assay buffer and 50 μl added into each well of a 96 well polypropylene assay plate (Greiner, #651201) containing 500 nl of 1 mM test compounds (final concentration 10 μM), this was allowed to react for 4 hours before the addition of 50 μl 1% Formic acid to quench the reaction. The plate was sealed before reading on a Xevo G2 QTOF (Waters) and Acquity LC system (Waters). 10 μl of sample was injected onto a Xbridge BEH300; C4; 3.5 um; 2.1×50 mm column (Waters) running a 3 minute gradient. Blank samples were run in between each test sample.
Data was analysed in Mass Lynx software (Waters), the Total ion count (TIC) trace was used and the eluted protein peak data combined. Using the combined spectrum the data was deconvoluted using MaxEnt1 method. The peak area for apo-protein KRas^G12C (APO) and KRAS+relative cmpd mass (adduct) were measured, and a percentage adduct was calculated using the following calculation: Percent adduct=100*(area of adduct peak/(sum of APO+adduct peaks)

The nature of data set [4]: Incubations with hepatic systems (turnover). The class given is in vitro ADME. The following applies: result in words.
Data set [5] can be described thus: Reactivity to glutathione (co-incubation with glutathione in buffer).

As for `C=CC(=O)N1CCN2c3c(cnc4c(C)c(-c5c(O)cccc5F)c(Cl)cc34)OC[C@H]2C1` (single isomer, unassigned) [Compound 39], the clearance in data set [1] was determined as 6 mL/min/kg. Moreover, the “F (oral bioavailability), in words” value in data set [1] (result in words) is on record as “complete”. The compound further came in with an IC50 in data set [2] of 97 nM. In addition, the “KRasG12C M.S. Binding Mean adduct %” value in data set [3] turned out to be 94%.

For `C=CC(=O)N1C[C@@H]2COc3cnc4c(C)c(-c5c(O)cccc5F)c(Cl)cc4c3N2C[C@H]1C` (single isomer, unassigned) [Compound 40], the bioavailability in data set [1] (po, species not given, read-out: F value (oral bioavailability)) turned out to be 43%. Further, the IC50 in data set [2] was 62 nM. Also, the “KRasG12C M.S. Binding Mean adduct %” value in data set [3] is reported as 96%.

Regarding `C=CC(=O)N1C[C@@H]2C(=O)N(C)c3cnc4c(F)c(-c5c(O)cccc5F)c(Cl)cc4c3N2C[C@H]1C` (single isomer, unassigned) [Example 22], the IC50 in data set [2] worked out at 5 nM. For the same compound, in data set [3], the “KRasG12C M.S. Binding Mean adduct %” value is recorded as 100%. Also, the “turnover in incubations with hepatic systems” value in data set [4] is reported as “low turnover”. Also, the half-life in data set [5] was determined as 15.5 h.

In data set [2], `C#Cc1cc2c3c(cnc2cc1-c1c(C)ccc2[nH]ncc12)OC[C@H]1CN(C(=O)C=C)CCN31` (single isomer, unassigned) [Compound 75] had an IC50 of 96 nM. The “KRasG12C M.S. Binding Mean adduct %” value in data set [3] turned out to be 96%.

As for `C=CC(=O)N1CCN2c3c(nnc4cc(-c5c(O)cccc5F)c(Cl)cc34)OC[C@H]2C1` [Example 10, 1-((4aR)-11-Chloro-10-(2-fluoro-6-hydroxyphenyl)-1,2,4a,5-tetrahydropyrazino[1′,2′:4,5][1,4]oxazino[2,3-c]cinnolin-3(4H)-yl)prop-2-en-1-one], the IC50 in data set [2] worked out at 135 nM. In addition, the “KRasG12C M.S. Binding Mean adduct %” value in data set [3] came out at 81%.

Turning to `C=CC(=O)N1CCN2c3c(cnc4c(F)c(-c5c(O)cccc5F)c(Cl)cc34)N(C)C(=O)[C@H]2C1` (single isomer, unassigned) [Example 17, 3-acryloyl-11-chloro-9-fluoro-10-(2-fluoro-6-hydroxyphenyl)-6-methyl-2,3,4,4a-tetrahydro-1H-pyrazino[1′,2′:4,5]pyrazino[2,3-c]quinolin-5(6H)-one], the IC50 in data set [2] came to 18 nM. For the same compound, the “KRasG12C M.S. Binding Mean adduct %” value in data set [3] was 100%. The “turnover in incubations with hepatic systems” value in data set [4] is given as “low turnover”. For the same compound, the half-life in data set [5] was determined as 9.75 h.

`C=CC(=O)N1CCN2c3c(cnc4c(F)c(-c5c(C)ccc6[nH]cnc56)c(Cl)cc34)OC[C@H]2C1` (single isomer, unassigned) [Compound 77]: in data set [2], the IC50 worked out at 28 nM. Further, the “KRasG12C M.S. Binding Mean adduct %” value in data set [3] stood at 60%.

The compound `C=CC(=O)N1CCN2c3c(cnc4cc(-c5c(F)ccc6cc[nH]c(=O)c56)c(Cl)cc34)OC[C@H]2C1` (single isomer, unassigned) [Compound 45] showed an IC50 in data set [2] of 26 nM. Also, in data set [3], the “KRasG12C M.S. Binding Mean adduct %” value amounted to 96%.

With `C=CC(=O)N1CCN2c3c(cnc4cc(-c5c(O)cccc5F)c(Cl)cc34)OC[C@H]2C1` (single isomer, unassigned) [Example 2], the IC50 in data set [2] was 281 nM. Besides, in data set [3], the “KRasG12C M.S. Binding Mean adduct %” value came to 87%.

As for `C=CC(=O)N1CCN2c3c(cnc4c(F)c(-c5c(O)cccc5F)c(Cl)cc34)NC(=O)[C@H]2C1` (single isomer, unassigned) [Compound 88], in data set [2], the IC50 was determined as 14 nM. For the same compound, the “KRasG12C M.S. Binding Mean adduct %” value in data set [3] was determined as 96%.
